Data on four compounds can be found in patent US20240199651A1, “ANTIBACTERIAL COMPOUNDS” (JANSSEN SCIENCES IRELAND UNLIMITED COMPANY, priority 2021, published 2024).

Values after ≈ are worked out from the molar mass of the structure shown. Read-outs that look alike come from different tables or passages of the source.

In one series the test system is MDCK. Put plainly: MDCK permeability (AB+inh, BA/AB). The settings on record: with inhibitor.
Series [1] can be described thus: LM CLint (microsomal stability), dog. The series is classed as in vitro ADME. From the text:
(§1) The compounds of the invention/examples may have advantages associated with in vitro potency, kill kinetics (i.e. bactericidal effect) in vitro, PK properties, food effect, safety/toxicity (including liver toxicity, coagulation, 5-LO oxygenase), metabolic stability, Ames II negativity, MNT negativity, aqueous based solubility (and ability to formulate) and/or cardiovascular effect e.g. on animals (e.g. anesthetized guinea pig). Data that is generated/calculated may be obtained using standard methods/assays, for instance that are available in the literature or which may be performed by a supplier (e.g. Microsomal Stability Assay—Cyprotex, Mitochondrial toxicity (Glu/Gal) assay—Cyprotex, as well as literature CYP cocktail inhibition assays). GSH can be measured (reactive metabolites, glucuronidation) to observe if a dihydrodiol is observed by LCMS (fragmentation ions), which would correspond to a dihydroxylation on the core heterocycle.
(§2) CLint Microsomes (μL/Min/Mg) in Dog (d), Human (h), Mouse (m) and Rat (r) (all at 1 μm)

Series [2] in a line: LM CLint (microsomal stability), rat. The series is classed as in vitro ADME.
From the text: as §1, §2

The nature of another series: AMES II. In kind it is cell-based. The settings on record: score.
From the text: as §1

Series [3] is described as follows: LM CLint (microsomal stability), mouse. The series is classed as in vitro ADME. The conditions noted are these: microsomes.
From the text: as §1, §2

The nature of series [4]: Mitochondrial toxicity (Glu/Gal) assay. Details: Glu/Gal: Glu / Glu/Gal: Gal: unit not given here. The series is classed as cell-based.
The nature of series [5]: Chemical stability testing (LCMS). The series is classed as physicochemical. The conditions noted are these: for chemical stability, purity by LCMS: 0.065 mg/mL; for chemical stability, % by LCMS: 30 µM. The protocol:
• Add 3 μl of a 10 mM DMSO stock solution to 1 ml of the following solvents in a 1.5 ml HPLC vial. • DMSO (reference solution) • H2O/Acetonitril 1/1 (assay solution) • 0.1N HCl/Acetonitril 1/1 (assay solution) • Mix well, […] LCMS • Compare the chromatograms of the two assay solutions with the reference solution and report the additional peaks as degradation peaks

A further series has as its system M. tuberculosis H37Rv. The conditions noted are these: M. tuberculosis H37Rv inside macrophages; cited from earlier work.
Series [6] concerns Mycobacterium tuberculosis strain EH4.0 expressing green-fluorescent protein (GFP). As to the kind of experiment: microbe, parasite or virus in culture. The series is classed as cell-based. The settings on record: Mycobacterium tuberculosis; Test 1 (and/or Test 2); M. tuberculosis.
Series [7] in a line: LM CLint (microsomal stability), human. In kind it is in vitro ADME. The conditions noted are these: liver microsomes, read-out: CLint Microsomes, Human (h).
From the text: as §1, §2
For orientation: Liver microsomes are vesicles of endoplasmic reticulum, rich in cytochrome P450 enzymes.

The next series can be described thus: in vitro. In kind it is in vitro ADME. The settings on record: human, plasma. From the text: PPB % Free (Human at 1 μm)
[8] abbreviates: 1 μm, read-out: CLint Microsomes, Mouse (m).

A word on the IC50: it is the concentration that gives 50% inhibition. As for `CCc1nc2ncc(Cl)cn2c1C(=O)NCc1ccc(-c2nc3n(n2)CCN(S(=O)(=O)C(F)(F)F)C3)cc1` [Compound 2], in the series on MDCK, the “MDCK AB+inh” value is recorded as 32.5. Moreover, the “CLint Microsomes, Dog (d)” value in series [1] (1 μm) is less than 7.7 μL/Min/Mg. Also, the microsomal CLint at 1 µM in [1] (microsomes), in [2] (microsomes) and in series [3] was less than 7.7 µL/min/mg throughout. Besides, the “CLint Microsomes, Rat (r)” value in [2] (1 μm) was less than 7.7 μL/Min/Mg. The “AMES II” value in the series “AMES II” turned out to be 1. Moreover, in series [4] (first value (Glu)), the “Glu/Gal: Glu” value was greater than 100. Further, the IC50 is greater than 100 µM in [4] (read-out: IC50, gal) and greater than 100 µM in series [4] (read-out: IC50, glu). The “Glu/Gal: Gal” value in [4] (second value (Gal)) was greater than 100. For the same compound, the “chemical stability, purity by LCMS” value in series [5] (0 h) stood at 99.56%; in [5] (0.25 h), 99.38%; in series [5] (0.5 h) it was 99.21%; in [5] (1 h) it was 98.89%; in series [5] (2 h) it was 98.28%; in series [5] (4 h), 97.1%. Also, the “chemical stability, % by LCMS” value in series [5] (72 h) is on record as 100%; in series [5] (72 h, pH 1.6), 90.52%.
For the compound `CCc1nc2ccc(Cl)cn2c1C(=O)NCc1ccc(N2CCC(c3ccc(OC(F)(F)F)cc3)CC2)cc1` [Compound Q203, Q203], in the series on M. tuberculosis H37Rv, the MIC50 is 0.28 nM (≈ 0.156 ng/mL).
For orientation: fraction unbound means the share of the substance not bound to proteins or other matrix. On to `CCc1nc2ccc(Cl)cn2c1C(=O)NCc1ccc(-c2nc3n(n2)CCN(S(=O)(=O)C(F)(F)F)C3)cc1` [Compound 1], for which the IC50 is 7.76 nM in series [6]; greater than 200 µM in series [4] (read-out: IC50, gal); greater than 200 µM in [4] (read-out: IC50, glu). Besides, the values for the microsomal CLint at 1 µM in [7] and in series [3] (setting [8]) were 30.3 µL/min/mg and 49.2 µL/min/mg, respectively. In the series “in vitro”, the fraction unbound at 1 µM is 0.00047.
As for `Cc1cnc2nc(C3CC3)c(C(=O)NCc3ccc(-c4nc5n(n4)CCN(S(=O)(=O)C(F)(F)F)C5)cc3)n2c1` [Compound 42], the microsomal CLint at 1 µM in [7] is 47.1 µL/min/mg; in series [3] (setting [8]) it was 20.4 µL/min/mg. This compound also yielded a fraction unbound at 1 µM in “in vitro” of 0.029. Moreover, the IC50 is greater than 25 µM in series [4] (read-out: IC50, gal) and greater than 25 µM in series [4] (read-out: IC50, glu). Also, the “chemical stability, % by LCMS” value in [5] (48 h) turned out to be 100%; in series [5] (48 h, pH 1.6), 100%.
